Peptide text beside a SMILES is read from it.

Here are results for three compounds from BindingDB's records for doi:10.1074/jbc.M705416200 (University Würzburg, 2007).

A short description of this assay: Inhibition of human SGLT1 expressed in xenopus laevis oocyte assessed as inhibition of methyl-alpha-D-[14C]glucopyranoside uptake after 1 hrs.

For the compound `CC(=O)N1CCC[C@H]1C(=O)N[C@@H](CO)C(=O)N[C@@H](CCC(N)=O)C(=O)O` [QSPac] (Ac-Pro-Ser-Gln-OH), the IC50 worked out at 0.17 nM.

Regarding `NC(=O)CC[C@H](N)C(=O)N[C@@H](CO)C(=O)N1CCC[C@H]1C(=O)O` [(S)-1-((S)-2-((S)-2,5-diamino-5-oxopentanamido)-3-hydroxypropanoyl)pyrrolidine-2-carboxylic acid] (H-Gln-Ser-Pro-OH), the IC50 turned out to be 0.16 nM.

With `NC(=O)CC[C@H](N)C(=O)N[C@@H](CS)C(=O)N1CCC[C@H]1C(=O)O` [QCP] (H-Gln-Cys-Pro-OH), the IC50 is 2.1 nM.
